Measured values: US4665068A, “Novel 9-chloro-1,5-benzothiazepine derivatives and their pharmaceutical use” (Tanabe Seiyaku Co., Ltd., priority 1984, dated 1987)
Where a name gives a salt, the structure may show the parent alone.

Tests used:
[1] = tested on: spontaneously hypertensive rats (SHR); assay: Hypotensive activity, systolic blood pressure of SHR after oral dosing (tail plethysmographic technique); assay type: in vivo, rat (spontaneously hypertensive; conditions: 30 mg/kg oral
Description: A test compound (dose: 30 mg/kg) dissolved or suspended in water was administered orally to spontaneously hypertensive rats (SHR) (one group: 3 rats) fasted overnight. […] The hypotensive activity of the test compound was estimated at one or 4 hours after dosing and expressed as "-" if the decrease in blood pressure is less than 10 mm Hg; "+" if the decrease is not less than 10 mm Hg but less than 20 mm Hg; "++" if the decrease is not less than 20 mm Hg but less than 40 mm Hg; "+++" if the decrease is not less than 40 mm Hg but less than 60 mm Hg; or "++++" if the decrease is not less than 60 mm Hg.

[2] = tested on: vertebral artery blood flow; assay: Cerebral vasodilating activity, blood flow in vertebral artery of anesthetized dogs; assay type: in vivo, dog (male); conditions: for increase in vertebral artery blood flow / cerebral vasodilating activity, times stronger than the 7-chloro derivative: intraarterial; for cerebral vasodilating activity, times stronger than the 7-chloro derivative: vs (±)-cis-3-acetoxy-7-chloro derivative hydrochloride; for Cerebral vasodilating activity (potency ratio): potency ratio to papaverine from dose-response curves, injected into vertebral artery
Description: (§1) On the other hand, when the coronary vasodilating activity is estimated by the Langendorff method using isolated hearts of guinea pigs, said activity of (+)-cis-2-(4-methoxyphenyl)-3-acetoxy-5-[2-(dimethylamino)ethyl]-9-chloro- 2,3-dihydro-1,5-benzothiazepin-4(5H)-one hydrochloride is about 10 times stronger than that of papaverine.
(Cerebral vasodilating activity)
Male dogs weighing 10 to 20 kg were anesthetized with sodium pentobarbital (30 mg/kg, intravenous injection). The blood flow in vertebral artery was measured continuously by means of an electromagnetic flowmeter under artificial respiration. A test compound dissolved in an aqueous 5% glucose solution was injected into vertebral artery. The cerebral vasodilating activity of the test compound was estimated in terms of the potency ratio of said compound to papaverine, which was calculated from the dose-response curves thereof.

[3] = tested on: coronary blood flow of the isolated heart of guinea pig; assay: Coronary vasodilating activity, Langendorff's method, isolated heart of guinea pig; conditions: for Coronary vasodilating activity: isolated guinea pig heart
Text: as §1
(Coronary vasodilating activity)
Langendorff's method was used for testing the effect on the coronary blood flow of the isolated heart of guinea pig (about 280 g). The isolated heart was perfused with Locke-Ringer solution containing 2% of defibrinated rabbit blood, which had been saturated with a mixed gas of 95% O2 and 5% CO2 (30° C.). Perfusion pressure was kept at 40 cm H2 O. A solution of a test compound in an aqueous 5% glucose solution was injected into the perfusing solution at a volume of 0.1 ml per heart. The outflow of the perfusate was measured by means of a drop counter.
The coronary vasodilating activity of the test compound was expressed as "±" if the increase in coronary blood flow is less than 0.5 ml/minute at a dose of 100 μg/heart; "+" if the increase is not less than 0.5 ml/minute at a dose of 100 μg/heart; "++" if the increase is not less than 0.5 ml/minute at a dose of 30 μg/heart; and "+++" if the increase is not less than 0.5 ml/minute at a dose of not more than 10 μg/heart.

[4] = Acute toxicity, oral, mice; conditions: mouse, in vivo
Description: For example, the acute toxicity (LD50) of (+)-cis-2-(4-methoxypnenyl)-3-acetoxy-5-[2-(dimethylamino)ethyl]-9-chloro- 2,3-dihydro-1,5-benzothiazepin-4(5H)-one hydrochloride when orally administered to mice is about 1,000 mg/kg.

platelet aggregation = assay: Platelet aggregation-inhibiting activity (collagen, platelet-rich plasma, Born's method); assay type: cell-based, rat (male Sprague-Dawley); set-up: key to the marks not given beside the values; conditions: final concentration 100 μg/ml, rat PRP, 37° C.
Text: (Platelet aggregation-inhibiting activity)
Blood was collected from the abdominal aorta of male Sprague-Dawley rats which were anesthetized with ether. Nine volumes of rat blood were mixed with one volume of an aqueous trisodium citrate solution, and the mixture was centrifuged to give platelet-rich plasma ("PRP") as the supernatant solution. The bottom layer was further centrifuged to give platelet-poor plasma ("PPP") as the supernatant solution. Platelet counts were adjusted to 0.8-1×10^6 /mm^3 for PRP by dilution with PPP. After a mixture of 200 μl of the diluted PRP and 25 μl of a test compound solution (final concentration: 100 μg/ml) was stirred for 2 minutes at 37° C., 25 μl of a collagen solution [Biochim. Biophys.

SMILES: COc1ccc([C@@H]2Sc3c(Cl)cccc3N(CCN(C)C)C(=O)[C@@H]2OC(C)=O)cc1.Cl (single isomer, unassigned) [(+)-cis-2-(4-methoxyphenyl)-3-acetoxy-5-[2-(dimethylamino)ethyl]-9-chloro-2,3-dihydro-1,5-benzothiazepin-4(5H)-one hydrochloride]
- decrease in blood pressure, one hour after administration ([1]; 1 hour): about 74 mm Hg
- Hypotensive activity, 1 hr after dosing [1]: ++++ (decrease is not less than 60 mm Hg)
- decrease in blood pressure, 4 hours after administration ([1]; 4 hours): ~54 mm Hg
- Hypotensive activity, 4 hrs after dosing [1]: +++ (decrease is not less than 40 mm Hg but less than 60 mm Hg)
- increase in vertebral artery blood flow [2]: remarkable increase in vertebral artery blood flow
- cerebral vasodilating activity, times stronger than the 7-chloro derivative [2]: more than 3 times
- Cerebral vasodilating activity (potency ratio) [2]: 15
- Coronary vasodilating activity [3]: +++ (increase is not less than 0.5 ml/minute at a dose of not more than 10 μg/heart)
- coronary vasodilating activity, times stronger than papaverine ([3]; isolated guinea pig hearts, vs papaverine): about 10 times
- LD50 [4]: ~1000 mg/kg

SMILES: COc1ccc(Cc2nccc3cc(OC)c(OC)cc23)cc1OC [Papaverine, reference compound]
- Coronary vasodilating activity [3]: + (increase is not less than 0.5 ml/minute at a dose of 100 μg/heart)

SMILES: COc1ccc([C@@H]2Sc3ccc(Cl)cc3N(CCN(C)C)C(=O)[C@@H]2OC(C)=O)cc1 (relative stereo) [(+)-cis-2-(4-methoxyphenyl)-3-acetoxy-5-[2-(dimethylamino)ethyl]-7-chloro-2,3-dihydro-1,5-benzothiazepin-4(5H)--one hydrochloride, reference compound]
- Hypotensive activity, 1 hr after dosing [1]: ++ (decrease is not less than 20 mm Hg but less than 40 mm Hg)
- Hypotensive activity, 4 hrs after dosing [1]: + (decrease is not less than 10 mm Hg but less than 20 mm Hg)

SMILES: COc1ccc([C@@H]2Sc3ccc(Cl)cc3N(CCN(C)C)C(=O)[C@@H]2OC(C)=O)cc1.Cl (racemic) [(±)-cis-2-(4-methoxyphenyl)-3-acetoxy-5-[2-(dimethylamino)ethyl]-7-chloro-2,3-dihydro-1,5-benzothiazepin-4(5H)-one hydrochloride, reference compound]
- Cerebral vasodilating activity (potency ratio) [2]: 5

SMILES: COc1ccc([C@@H]2Sc3c(Cl)cccc3N(CCN(C)C)C(=O)[C@@H]2O)cc1.[O-][Cl+3]([O-])([O-])O (single isomer, unassigned) [(+)-cis-2-(4-methoxyphenyl)-3-hydroxy-5-[2-(dimethylamino)ethyl]-9-chloro-2,3-dihydro-1,5-benzothiazepin-4(5H)-one perchlorate]
- Hypotensive activity, 1 hr after dosing [1]: +++ (decrease is not less than 40 mm Hg but less than 60 mm Hg)
- Hypotensive activity, 4 hrs after dosing [1]: ++ (decrease is not less than 20 mm Hg but less than 40 mm Hg)
- increase in vertebral artery blood flow [2]: remarkable increase in vertebral artery blood flow
- cerebral vasodilating activity, times stronger than the 7-chloro derivative [2]: more than 3 times
- Cerebral vasodilating activity (potency ratio) [2]: 22
- Coronary vasodilating activity [3]: +++ (increase is not less than 0.5 ml/minute at a dose of not more than 10 μg/heart)

SMILES: COc1ccc([C@@H]2Sc3c(Cl)cccc3N(CCN(C)C)C(=O)[C@@H]2O)cc1.Cl (racemic) [(±)-cis-2-(4-methoxyphenyl)-3-hydroxy-5-[2-(dimethylamino)ethyl]-9-chloro-2,3-dihydro-1,5-benzothiazepin-4(5H)-one hydrochloride]
- Platelet aggregation-inhibiting activity (platelet aggregation): ++
- Coronary vasodilating activity [3]: +++ (increase is not less than 0.5 ml/minute at a dose of not more than 10 μg/heart)

SMILES: COc1ccc([C@@H]2Sc3c(Cl)cccc3N(CCN(C)C)C(=O)[C@@H]2OC(C)=O)cc1.Cl (racemic) [(±)-cis-2-(4-methoxyphenyl)-3-acetoxy-5-[2-(dimethylamino)ethyl]-9-chloro-2,3-dihydro-1,5-benzothiazepin-4(5H)-one hydrochloride]
- Hypotensive activity, 1 hr after dosing [1]: +++ (decrease is not less than 40 mm Hg but less than 60 mm Hg)
- Hypotensive activity, 4 hrs after dosing [1]: +++ (decrease is not less than 40 mm Hg but less than 60 mm Hg)
- Platelet aggregation-inhibiting activity (platelet aggregation): ++
- Coronary vasodilating activity [3]: +++ (increase is not less than 0.5 ml/minute at a dose of not more than 10 μg/heart)
